For data set [1], the system named is adhesion of HL-60 cells to HUVEC monolayers (ELAM-1). The data set can be described thus: Effect on the adhesion of HL-60 cells to HUVEC monolayers mediated by an adhesion molecule. The data set is classed as cell-based, human. As to conditions: 10 μg/ml final, in lecithin/cholesterol liposome, IL-1β-stimulated HUVEC. The method, then: (Effect on the Adhesion of Cultured Cells Mediated by a Adhesion Molecule)
(2) Experimental methods and materials
HUVECs (Human umbilical vein endothelial cells: KURABO) were suspended in E-GM UV medium at the concentration of 5×10^3 cells/ml, 100-μl each aliquot thereof was distributed into a 96-well microplate and incubated in a 5% CO2 containing air at 37° C. with the medium being replaced fresh 24 h later. The culture was continued for another 5 days, and the following experiment was performed after the confluent growth of the cells was confirmed.
In order to express ELAM-1 on HUVEC monolayers, IL-1β (IL-1β, Human, Recombinant: Genzym) was added to said culture (final concentration, 10 units/ml) and incubated for 4 h, then the test compound (final concentration, 10 μg/ml) containing liposome prepared with lecithin and cholesterol was added and further incubated or 1 h. Then human promyelocytic leukemia cell line […] which had been cultured was added to said culture at the final concentration of 5×10^5 cells/ml and incubated for 15 min. After washing said culture with the culture medium 3 times to remove the non-adhering HL-60 cells, said culture was gently stirred overnight to strip HL-60 cells adhering to HUVEC monolayers and count. Percent inhibition of adhesion (%) was calculated from the following equation [Margaret, J. et al., Proc. Natl. Acad. Sci. USA, 88, 6224 (1991)]. […]

In data set [2] the test system is passive Arthus reaction. The data set can be described thus: Anti-inflammatory activity test: passive Arthus reaction (Example of Test 2). The data set is classed as in vivo, male guinea pigs of the Hartley strain. As to conditions: Table 21; 0.1 mg/kg i.v., 30 min before antigen. The method, then: Example of Test 2 (Anti-inflammatory Activity Test)
(§1) Male guinea pigs of the Hartley strain weighing 200~250 g were used.
(2) Experimental Materials
(§2) The anti-ovalbumin rabbit serum (PCA titer=1/80,000) and ovalbumin were used as the antiserum and antigen, respectively.
(§3) The passive Arthus reaction was performed according to the method of Katayama et al. [Katayama, S. et al., Arzeim-Forsch., 31, 1196 (1981)]. That is, guinea pigs were sensitized by an intravenous injection of said anti-ovalbumin rabbit serum (2.5 ml/kg). Thirty minutes after the injection, the Arthus reaction was induced by the intradermal injection of an antigen solution (0.05 ml) containing 0.10 mg of ovalbumin to the abdomen shaved the day before. Two hours after the antigen challenge, the area of intradermal bleeding was measured and used as the index representing the grade of inflammatory reaction. Test compounds were intravenously injected 30 min before the antigen injection. Four guinea pigs per each group were used.
(§4) The percent inhibi- is expressed as the bleeding area of the challenged site (%) of the animal group injected with each compound relative to that (100%) of the group administered with the physiological saline.

The nature of data set [3]: Simple acute toxicity test (intravenous injection). It is filed as in vivo, male mice of ddY strain. To be noted: 50 mg/kg, ddY mice; for Mortality: i.v. (tail vein); for mortality (in words): i.v. The method, then: Example of Test 1 (Simple Acute Toxicity Test)
The simple acute toxicity test was carried out by an intravenous injection of compounds of the present invention.
Into the tail vein of male mice of ddY strain weighing 18~20 g which have been kept under the conditions at the temperature of 23°±1° C. and in the humidity of 55 ±7% were injected a solution of the compound of the present invention dissolved in the physiological saline containing the desired dose per 20 g body weighing 0.2 ml. Two dosages of which were 50 mg/kg and 500 mg/kg body weight were used.

In data set [4] the test system is passive Arthus reaction. The data set is described as follows: Anti-inflammatory activity test, carried out as Example of Test 2 (Example of Test 3). To be noted: Table 22, i.v. It is filed as in vivo, male guinea pigs of the Hartley strain. The method, then:
as §1, §2, §3, §4
The anti-inflammatory activity test of compounds of the present invention was similarly carried out as in the case of Example of Test 2.

As for `CCCCCCCCCCCCCC=CC(O)C(COC1OC(CO)C(OC2OC(CO)C(O)C(OC3OC(CO)C(OC4OC(CO)C(O)C(OS(=O)(=O)[O-])C4OS(=O)(=O)[O-])C(OC4OC(C)C(O)C(O)C4O)C3NC(C)=O)C2O)C(O)C1O)NC(=O)CCCCCCCCCCCCCCCCCCCCCCC.[Na+].[Na+]` (centres unmarked) [Compound 77], the Adhesion inhibitory activity in data set [1] worked out at 21.0 ± 15.0%. In addition, the “Percent inhibition (passive Arthus reaction)” value (“Percent inhibition” for short) with passive Arthus reaction [2] came to 40.4 ± 5.1%. Besides, in data set [3], the Mortality is reported as 0/3 and the “mortality (in words)” value is reported as “no mortality was observed”.
Regarding `CCCCCCCCCCCCCC=CC(O)C(COC1OC(CO)C(OC2OC(CO)C(O)C(OC3OC(CO)C(OC4OC(CO)C(O)C(OS(=O)(=O)[O-])C4O)C(OC4OC(C)C(O)C(O)C4O)C3NC(C)=O)C2O)C(O)C1O)NC(=O)CCCCCCCCCCCCCCCCCCCCCCC.[Na+]` (centres unmarked) [Compound 78], the Adhesion inhibitory activity in data set [1] is recorded as 20.7 ± 3.7%. Moreover, the “Percent inhibition” value with passive Arthus reaction [2] is 32.5 ± 7.3%. In addition, in data set [3], the Mortality is listed as 0/3 and the “mortality (in words)” value is given as “no mortality was observed”.
In the case of `CCCOC1OC(CO)C(OC2OC(C)C(O)C(O)C2O)C(OC2OC(CO)C(OS(=O)(=O)[O-])C(OS(=O)(=O)[O-])C2OS(=O)(=O)[O-])C1NC(C)=O.[Na+].[Na+].[Na+]` (centres unmarked) [Compound 176], the “Percent inhibition” value is reported as 57.5 ± 14.7% in the data set with passive Arthus reaction [4] (0.01 mg/kg), 83.9 ± 10.1% with passive Arthus reaction [4] (0.1 mg/kg) and 92.4 ± 3.8% with passive Arthus reaction [4] (1 mg/kg).
Regarding `CCCOC1OC(CO)C(OC2OC(C)C(O)C(O)C2O)C(OC2OC(CO)C(O)C(O)C2OS(=O)(=O)[O-])C1NC(C)=O.[Na+]` (centres unmarked) [Compound 188], the “Percent inhibition” value with passive Arthus reaction [4] (0.01 mg/kg) was found to be 57.2 ± 14.5%; in the data set with passive Arthus reaction [4] (0.1 mg/kg) it was 86.2 ± 1.7%; with passive Arthus reaction [4] (0.001 (unit of dose not given)) it was 84.2 ± 5.4%.
Taken in the same sequence, the figures for `CCCOC1OC(CO)C(OC2OC(C)C(O)C(O)C2O)C(OC2OC(CO)C(O)C(OS(=O)(=O)[O-])C2O)C1NC(C)=O.[Na+]` (centres unmarked) [Compound 189] were 73.6 ± 8.9%, 59.8 ± 9.7% and 90.9 ± 4.0%.
Turning to `CCCOC1OC(CO)C(OC2OC(C)C(O)C(O)C2O)C(OC2OC(CO)C(OS(=O)(=O)[O-])C(O)C2O)C1NC(C)=O.[Na+]` (centres unmarked) [Compound 190], the “Percent inhibition” value in the data set on passive Arthus reaction [4] (0.01 mg/kg) is on record as 79.3 ± 4.7%; in the data set with passive Arthus reaction [4] (0.1 mg/kg), 76.9 ± 4.1%; in the data set with passive Arthus reaction [4] (0.001 (unit of dose not given)), 12.7 ± 6.3%.

Values taken from patent publication US5763413A, “Lewis-associated compound, process for producing the same, and anti-inflammatory” (MECT Corporation, priority 1993, dated 1998).
